The nature of data set [1]: Stability investigation of the lyophilisate (visual inspection, reverse HPLC). Type of data set: physicochemical. The protocol:
For that the lyophilisate was stored up to 24 months at 2 to 8° C. and up to 6 months at 25° C. at 60% relative humidity. Stability was investigated at different time points during that period. In particular the appearance, contents, as well as purity of the cyclic peptides were investigated. For that laboratory-common analytical processes were used, such as e.g. visual inspection and reverse HPLC.

Data set [2] deals with T1, amilorid-sensitive Sodium Ion Channel (ENaC) (Homo sapiens, UniProt P37088).
T1 construct: Macroscopic Sodium Ion Currents were derived from human lung epithelian cells A549; endogenous in cells; host or cells: A549 human lung epithelial cells
T1 sequence (P37088 1-669): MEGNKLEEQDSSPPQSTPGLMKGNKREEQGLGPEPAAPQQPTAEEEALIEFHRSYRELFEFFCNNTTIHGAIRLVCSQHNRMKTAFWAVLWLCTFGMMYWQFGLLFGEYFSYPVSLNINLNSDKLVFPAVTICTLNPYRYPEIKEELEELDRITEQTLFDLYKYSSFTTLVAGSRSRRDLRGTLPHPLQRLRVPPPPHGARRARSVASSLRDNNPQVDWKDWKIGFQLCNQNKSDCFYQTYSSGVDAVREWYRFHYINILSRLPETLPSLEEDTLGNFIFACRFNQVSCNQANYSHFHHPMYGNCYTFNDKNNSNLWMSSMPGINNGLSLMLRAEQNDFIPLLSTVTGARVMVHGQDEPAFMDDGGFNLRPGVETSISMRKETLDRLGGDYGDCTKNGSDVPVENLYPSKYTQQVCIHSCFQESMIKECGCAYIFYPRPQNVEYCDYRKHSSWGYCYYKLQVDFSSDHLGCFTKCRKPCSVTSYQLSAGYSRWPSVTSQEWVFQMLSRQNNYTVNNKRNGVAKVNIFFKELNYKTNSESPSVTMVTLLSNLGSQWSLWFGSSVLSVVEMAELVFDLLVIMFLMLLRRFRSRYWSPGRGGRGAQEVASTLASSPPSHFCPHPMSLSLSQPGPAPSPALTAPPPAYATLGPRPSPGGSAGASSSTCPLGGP
T1 sequence (P51168 1-640 partner): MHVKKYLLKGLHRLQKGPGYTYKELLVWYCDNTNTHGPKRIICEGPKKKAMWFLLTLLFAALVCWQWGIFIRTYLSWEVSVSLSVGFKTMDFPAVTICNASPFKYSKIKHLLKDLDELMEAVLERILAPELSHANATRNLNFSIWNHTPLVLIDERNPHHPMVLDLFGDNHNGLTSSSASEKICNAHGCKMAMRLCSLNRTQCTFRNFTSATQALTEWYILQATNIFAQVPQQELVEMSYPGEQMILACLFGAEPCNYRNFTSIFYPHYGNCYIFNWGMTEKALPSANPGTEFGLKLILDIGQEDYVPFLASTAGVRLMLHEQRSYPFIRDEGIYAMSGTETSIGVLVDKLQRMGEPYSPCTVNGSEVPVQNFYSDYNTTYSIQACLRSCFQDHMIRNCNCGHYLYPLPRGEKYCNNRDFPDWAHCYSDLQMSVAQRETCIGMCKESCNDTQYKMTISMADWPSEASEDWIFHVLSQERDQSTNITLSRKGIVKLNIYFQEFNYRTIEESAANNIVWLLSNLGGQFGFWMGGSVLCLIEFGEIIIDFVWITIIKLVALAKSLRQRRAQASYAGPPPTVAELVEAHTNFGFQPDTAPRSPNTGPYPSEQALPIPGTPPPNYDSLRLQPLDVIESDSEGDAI
T1 sequence (P51170 1-649 partner): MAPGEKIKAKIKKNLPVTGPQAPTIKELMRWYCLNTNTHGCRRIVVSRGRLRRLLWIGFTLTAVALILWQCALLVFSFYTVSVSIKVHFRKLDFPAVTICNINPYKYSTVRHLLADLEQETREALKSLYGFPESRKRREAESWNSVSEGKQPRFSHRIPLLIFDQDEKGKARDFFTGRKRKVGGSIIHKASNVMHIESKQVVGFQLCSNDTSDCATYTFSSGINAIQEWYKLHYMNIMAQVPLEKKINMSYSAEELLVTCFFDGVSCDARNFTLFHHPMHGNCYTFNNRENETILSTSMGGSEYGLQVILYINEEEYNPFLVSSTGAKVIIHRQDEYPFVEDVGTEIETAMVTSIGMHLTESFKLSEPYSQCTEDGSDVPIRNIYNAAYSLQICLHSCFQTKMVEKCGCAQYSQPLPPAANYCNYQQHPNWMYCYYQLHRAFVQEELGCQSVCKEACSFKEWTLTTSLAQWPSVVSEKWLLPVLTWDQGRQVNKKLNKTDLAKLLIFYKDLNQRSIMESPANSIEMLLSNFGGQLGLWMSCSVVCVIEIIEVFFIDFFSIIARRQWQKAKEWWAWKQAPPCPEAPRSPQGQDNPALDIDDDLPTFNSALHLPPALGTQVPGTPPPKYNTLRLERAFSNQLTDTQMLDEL
Put plainly: Patch Clamp whole cell sodium current in deglycosylated (PNGase F) and untreated A549 cells. Type of data set: cell-based. As to conditions: pre-treatment with PNGase F, peptide 240 nM, Eh = −100 mV. The protocol: […] After control recordings, 240 nM of the peptide of amino acid sequence SEQ ID NO:1 was added to the bath solution. […] Whole cell currents were recorded at Eh=−100 mV. The concentration of the peptides of amino acid sequence SEQ ID NO:1 to SEQ ID NO:7 in the bath solution was 240 nM.
(In general: Patch clamp records ionic current or voltage across a cell membrane.)

[3] abbreviates: storage 2-8° C., T = 0 to T = 24 M.
Setting [4] is: storage 25° C./60% rH, T = 0 to T = 6 M.

The structures appear in SMILES notation.

With `C[C@@H]1NC(=O)CNC(=O)[C@H](CCC(=O)O)NC(=O)[C@@H]2CCCN2C(=O)[C@H]([C@@H](C)O)NC(=O)[C@H](CCC(=O)O)NC(=O)[C@H](CCCNC(=N)N)NC(=O)[C@H](CCC(N)=O)NC(=O)CNC(=O)[C@@H](N)CCCCNC(=O)CNC(=O)[C@H](Cc2ccc(O)cc2)NC(=O)[C@H](Cc2c[nH]c3ccccc23)NC(=O)[C@@H]2CCCN2C(=O)[C@H](CCCCN)NC(=O)[C@H](C)NC(=O)[C@H](CCC(=O)O)NC1=O` [SEQ ID NO: 3], the Amount/Contents of lyophilisate in data set [1] (storage 2-8° C., T = 0) is recorded as 100%; in data set [1] (storage 2-8° C., T = 24 M), 99%; in data set [1] (storage 25° C./60% rH, T = 0) it was 100%; in data set [1] (storage 25° C./60% rH, T = 6 M), 99%. Moreover, the “Purity of lyophilisate (stability study)” value in data set [1] (storage 2-8° C., T = 0) turned out to be 98%; in data set [1] (storage 2-8° C., T = 24 M), 98%; in data set [1] (storage 25° C./60% rH, T = 0), 98%; in data set [1] (storage 25° C./60% rH, T = 6 M), 97%. The Appearence of lyophilisate result in data set [1] (setting [3]) and in data set [1] (setting [4]) was “white powder” each time. Moreover, the “whole cell sodium current” value in data set [2] was 20.6 pA (n = 3).
For the molecule `C[C@@H]1NC(=O)CNC(=O)[C@H](CCC(=O)O)NC(=O)[C@@H]2CCCN2C(=O)[C@H]([C@@H](C)O)NC(=O)[C@H](CCC(=O)O)NC(=O)[C@H](CCCNC(=N)N)NC(=O)[C@H](CCC(N)=O)NC(=O)CNC(=O)CCCNC(=O)C[C@@H](C(=O)O)NC(=O)[C@H](Cc2ccc(O)cc2)NC(=O)[C@H](Cc2c[nH]c3ccccc23)NC(=O)[C@@H]2CCCN2C(=O)[C@H](CCCCN)NC(=O)[C@H](C)NC(=O)[C@H](CCC(=O)O)NC1=O` [SEQ ID NO: 5], the Amount/Contents of lyophilisate is listed as 100% in data set [1] (storage 2-8° C., T = 0); 99% in data set [1] (storage 2-8° C., T = 24 M); 100% in data set [1] (storage 25° C./60% rH, T = 0); 99% in data set [1] (storage 25° C./60% rH, T = 6 M). The “Purity of lyophilisate (stability study)” value in data set [1] (storage 2-8° C., T = 0) worked out at 99%; in data set [1] (storage 2-8° C., T = 24 M), 99%; in data set [1] (storage 25° C./60% rH, T = 0), 99%; in data set [1] (storage 25° C./60% rH, T = 6 M), 98%. Also, the Appearence of lyophilisate entry in data set [1] (setting [3]) and in data set [1] (setting [4]) was “white powder” in each case. Further, the “whole cell sodium current” value in data set [2] is reported as 22.4 pA (n = 3).
Consider `C[C@@H]1NC(=O)CNC(=O)[C@H](CCC(=O)O)NC(=O)[C@@H]2CCCN2C(=O)[C@H]([C@@H](C)O)NC(=O)[C@H](CCC(=O)O)NC(=O)[C@H](CCCNC(=N)N)NC(=O)[C@H](CCC(N)=O)NC(=O)CNC(=O)[C@@H]2CCCN2C(=O)[C@H](CO)NC(=O)[C@@H](N)CCCCNC(=O)CC[C@@H](C(=O)O)NC(=O)[C@H](Cc2ccc(O)cc2)NC(=O)[C@H](Cc2c[nH]c3ccccc23)NC(=O)[C@@H]2CCCN2C(=O)[C@H](CCCCN)NC(=O)[C@H](C)NC(=O)[C@H](CCC(=O)O)NC1=O` [SEQ ID NO: 2], for which the Amount/Contents of lyophilisate in data set [1] (storage 2-8° C., T = 0) came out at 100%; in data set [1] (storage 2-8° C., T = 24 M), 99%; in data set [1] (storage 25° C./60% rH, T = 0) it was 100%; in data set [1] (storage 25° C./60% rH, T = 6 M), 99%. Besides, the “Purity of lyophilisate (stability study)” value in data set [1] (storage 2-8° C., T = 0) is 96%; in data set [1] (storage 2-8° C., T = 24 M), 96%; in data set [1] (storage 25° C./60% rH, T = 0), 96%; in data set [1] (storage 25° C./60% rH, T = 6 M) it was 95%. For the same molecule, the Appearence of lyophilisate result in data set [1] (setting [3]) and in data set [1] (setting [4]) was “white powder” each time. The “whole cell sodium current” value in data set [2] was 21.3 pA (n = 3).
For the molecule `C[C@@H]1NC(=O)CNC(=O)[C@H](CCC(=O)O)NC(=O)[C@@H]2CCCN2C(=O)[C@H]([C@@H](C)O)NC(=O)[C@H](CCC(=O)O)NC(=O)[C@H](CCCNC(=N)N)NC(=O)[C@H](CCC(N)=O)NC(=O)CNC(=O)CCNC(=O)CC[C@@H](C(=O)O)NC(=O)[C@H](Cc2ccc(O)cc2)NC(=O)[C@H](Cc2c[nH]c3ccccc23)NC(=O)[C@@H]2CCCN2C(=O)[C@H](CCCCN)NC(=O)[C@H](C)NC(=O)[C@H](CCC(=O)O)NC1=O` [SEQ ID NO: 6], the Amount/Contents of lyophilisate worked out at 100% in data set [1] (storage 2-8° C., T = 0); 99% in data set [1] (storage 2-8° C., T = 24 M); 100% in data set [1] (storage 25° C./60% rH, T = 0); 99% in data set [1] (storage 25° C./60% rH, T = 6 M). The “Purity of lyophilisate (stability study)” value worked out at 99% in data set [1] (storage 2-8° C., T = 0); 99% in data set [1] (storage 2-8° C., T = 24 M); 99% in data set [1] (storage 25° C./60% rH, T = 0); 98% in data set [1] (storage 25° C./60% rH, T = 6 M). Further, the Appearence of lyophilisate entry in data set [1] (setting [3]) and in data set [1] (setting [4]) was “white powder” each time. Further, the “whole cell sodium current” value in data set [2] was 19.9 pA (n = 3).
As for `C[C@@H]1NC(=O)CNC(=O)[C@H](CCC(=O)O)NC(=O)[C@@H]2CCCN2C(=O)[C@H]([C@@H](C)O)NC(=O)[C@H](CCC(=O)O)NC(=O)[C@H](CCCNC(=N)N)NC(=O)[C@H](CCC(N)=O)NC(=O)CNC(=O)[C@@H](N)CCCNC(=O)CNC(=O)[C@H](Cc2ccc(O)cc2)NC(=O)[C@H](Cc2c[nH]c3ccccc23)NC(=O)[C@@H]2CCCN2C(=O)[C@H](CCCCN)NC(=O)[C@H](C)NC(=O)[C@H](CCC(=O)O)NC1=O` [SEQ ID NO: 4], the Amount/Contents of lyophilisate in data set [1] (storage 2-8° C., T = 0) turned out to be 100%; in data set [1] (storage 2-8° C., T = 24 M), 99%; in data set [1] (storage 25° C./60% rH, T = 0), 100%; in data set [1] (storage 25° C./60% rH, T = 6 M), 99%. In addition, the “Purity of lyophilisate (stability study)” value in data set [1] (storage 2-8° C., T = 0) came out at 97%; in data set [1] (storage 2-8° C., T = 24 M) it was 97%; in data set [1] (storage 25° C./60% rH, T = 0), 97%; in data set [1] (storage 25° C./60% rH, T = 6 M), 96%. Further, the Appearence of lyophilisate entry in data set [1] (setting [3]) and in data set [1] (setting [4]) was “white powder” throughout. The “whole cell sodium current” value in data set [2] is 22.5 pA (n = 3).

Values taken from patent publication US10711041B2, “Lyophilisate containing a cyclic peptide of formula X1-[sequence]-X2” (priority 2013, dated 2020).
